This note sets out measurements from PubChem BioAssay (NCI).

What all share (experiment): NCI-60 cell line screen, 48 h
Assay [1] relates to DLD-1 colon.
For assay [2], the system named is DMS 273 small cell lung.
For assay [3], the system named is M14 melanoma.
Assay [4] has as its system OVCAR-4 ovarian.
Assay [5] concerns K-562 leukemia.
Assay [6] relates to HOP-18 NSCLC.
For assay [7], the system named is XF 498 CNS.
In assay [8] the test system is M19-MEL melanoma.
Assay [9] relates to HCT-116 colon.
Assay [10] has as its system UACC-62 melanoma.
Assay [11] has as its system SNB-78 CNS.
The test system of assay [12] is UO-31 renal.
Assay [13] deals with SK-OV-3 ovarian.
The subject of assay [14] is LXFL 529 NSCLC.
For assay [15], the system named is DMS 114 small cell lung.

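Step 1: Grow cells in 96-well plates. Step 2: Expose to compound for 48 hours at 5 concentrations. Step 3: Interpolate endpoints linearly; if unreached, use highest concentration. At the TGI there is no net growth.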

`CCOc1ccc(N(CC(=O)N2CC(=O)Nc3cc(C)c(C)cc32)C(C)=O)cc1`: the TGI in [1], in assay [2], in assay [3], in [4], in [5] and in assay [6] was over 100 µM in each case. The TGI in assay [7], in assay [8], in [9], in assay [10], in [11] and in [12] was over 100 µM in each case. For the same compound, the TGI in assay [13] and in assay [14] was over 100 µM in each case.

Turning to `N#C/C(c1nc2ccccc2[nH]1)=c1\s/c(=C/c2ccccc2)c(=O)n1-c1ccccc1`, the TGI in assay [1], in assay [2], in [3], in assay [4], in assay [5] and in assay [7] was over 100 µM throughout. The TGI in assay [8], in assay [9], in [15], in assay [10], in [12] and in [13] was over 100 µM each time. This compound returned a TGI in assay [14] of over 100 µM.

For `O=c1c2ccccc2n2c(-c3ccccc3O)nnc2n1-c1ccccc1`, the TGI in assay [3] is over 100 µM; in [4], over 100 µM; in assay [5], over 100 µM; in [9] it was over 100 µM; in [10] it was over 100 µM; in [12], 5.72 µM. In assay [13], the TGI was over 100 µM.

As to `NC(=O)c1ncn(C2C=CC(CP(=O)(O)O)C2)c1N` (centres undefined), the TGI in assay [3], in assay [4], in assay [5], in assay [9], in assay [10] and in assay [12] was over 100 µM throughout. The compound further displayed a TGI in assay [13] of over 100 µM.

For the compound `CC(=O)NC(CCCCNCc1ccccc1)C(=O)NCc1ccccc1` (centres undefined), the TGI in assay [1], in assay [2], in assay [3], in assay [4], in assay [5] and in assay [7] was over 100 µM in each case. Besides, the TGI in assay [8], in assay [9], in assay [15], in [10], in assay [11] and in assay [12] was over 100 µM each time. For the same compound, the TGI in assay [13] and in assay [14] was over 100 µM in each case.

`O=C1N[C@H]2C(=O)c3c(Br)sc(Br)c3[C@H]2O1`: the TGI in assay [3] was 10.4 µM; in assay [4] it was 31.3 µM; in assay [5] it was over 21.7 µM; in assay [9] it was 7.33 µM; in assay [10], 26.7 µM; in assay [12], 4.22 µM. The same compound showed a TGI in [13] of 34.7 µM.

For the compound `N#CC(NNC(=O)Cc1ccccc1)c1ccc([N+](=O)[O-])cc1` (centres undefined), the TGI in [1], in assay [2], in assay [3], in [4], in assay [5] and in assay [6] was over 100 µM throughout. Moreover, the TGI in assay [8], in assay [9], in [10], in assay [11], in [12] and in [13] was over 100 µM in each case. For the same compound, the TGI in [14] is over 100 µM.

On to `Cc1cc(C)c2c(=O)n(CC(O)CN(Cc3ccccc3)CC(O)Cn3sc4nc(C)cc(C)c4c3=O)sc2n1` (centres undefined), for which the TGI in assay [3] was 32.9 µM; in assay [4] it was 32.4 µM; in assay [5], over 100 µM; in [9] it was 31.5 µM; in assay [10] it was 30.6 µM; in [12], 31.6 µM. Besides, the TGI in assay [13] stood at 73.6 µM.

Consider `NCCCN(CCCCN(CCCN)Cc1ccccc1)Cc1ccccc1`, for which the TGI in assay [3], in [4], in assay [5], in assay [9], in assay [10] and in assay [12] was over 100 µM throughout. In assay [13], this compound yielded a TGI of over 100 µM.

`CC1(O)CC2C(CC1SC1CC3C(CC1(C)O)C3(C)C)C2(C)C` (centres undefined): the TGI in assay [1] was over 100 µM; in assay [2] it was over 100 µM; in assay [3], over 100 µM; in [4], 94.1 µM; in assay [5] it was over 100 µM; in assay [6] it was over 100 µM. Further, the TGI in assay [7] was over 100 µM; in assay [8], 63.4 µM; in assay [9], over 100 µM; in [15], over 100 µM; in [11], over 100 µM; in assay [12] it was over 100 µM. Also, the TGI in assay [13] and in assay [14] was over 100 µM in each case.

As for `O=C(CCN1CCCCC1)Nc1ccc2c(c1)C(=O)c1ccc(NC(=O)CCN3CCCCC3)cc1C2=O`, the TGI turned out to be 15 µM in assay [1]; 3.87 µM in assay [2]; 10.1 µM in [3]; 8.45 µM in assay [4]; 7.64 µM in assay [5]; 30.7 µM in assay [6]. Also, the TGI in assay [8] is over 100 µM; in assay [9] it was 3.2 µM; in [15], 34.7 µM; in assay [10], 34.7 µM; in assay [11] it was 29.8 µM; in assay [12], 32.8 µM. The TGI in [13] was determined as 26.4 µM; in [14], 4.64 µM.

In the case of `NC(=O)N/N=C\CC(O)(C(F)(F)Cl)C(F)(F)Cl`, the TGI in assay [3], in assay [4], in [5], in [9], in assay [10] and in assay [12] was over 10 µM in each case. In assay [13], this compound gave a TGI of over 10 µM.

With `COc1cccc([C@@H]2C/C(=N\NC(=O)C(=O)N[C@@H](C)c3ccccc3)c3ccccc3N2)c1`, the TGI in assay [3] was over 100 µM; in assay [4] it was over 100 µM; in assay [5], over 100 µM; in [9], over 100 µM; in assay [10], 38.4 µM; in assay [12], over 100 µM. The TGI in [13] is over 100 µM.

In the case of `Cc1ccc(C(=O)NC2CCCCC2)cc1N=NN(C)C`, the TGI in [1], in [2], in assay [3], in assay [4], in [8] and in assay [9] was over 100 µM in each case. Besides, the TGI in assay [10], in [11], in assay [12] and in [14] was over 100 µM in each case.

As to `O=C(N/C(=C\c1ccccc1)c1nc2ccccc2c(=O)o1)c1ccccc1`, the TGI in [3] was over 100 µM; in assay [4] it was over 100 µM; in assay [5], over 100 µM; in assay [9] it was over 100 µM; in assay [10] it was over 100 µM; in [12] it was 97.3 µM. Further, the TGI in assay [13] was over 100 µM.

For the compound `O=C(NC(CS)C(=O)O)c1c2ccccc2nc2ccccc12` (centres undefined), the TGI in [3] is over 100 µM; in assay [4] it was over 100 µM; in [5] it was over 100 µM; in assay [9] it was over 100 µM; in assay [10], over 100 µM; in assay [12] it was 43 µM. Also, the TGI in [13] was over 100 µM.

For the compound `CC(=O)Nc1ccc(S(=O)(=O)c2nnc(NC(C)=O)s2)cc1`, the TGI in assay [3], in assay [4], in assay [5], in assay [9], in [10] and in assay [12] was over 100 µM each time. In assay [13], this compound yielded a TGI of over 100 µM.

`COc1cc(C2c3cc4c(cc3OC(NNC(N)=S)C2C)OCO4)cc(OC)c1OC` (centres undefined): the TGI in [3] is over 51.9 µM; in assay [4], over 100 µM; in [5], over 100 µM; in [9], over 80.7 µM; in assay [10] it was over 100 µM; in assay [12], 60.1 µM. For the same compound, in assay [13], the TGI was over 100 µM.

As to `CCOC(=O)C(C)NC(=O)NC12CC3CC(CC(F)(C3)C1)C2` (centres undefined), the TGI was over 100 µM in assay [1]; over 100 µM in [2]; over 100 µM in [3]; over 100 µM in [5]; 89.4 µM in [7]; over 100 µM in assay [8]. Moreover, the TGI in [9] is over 100 µM; in assay [15] it was over 100 µM; in [10], over 100 µM; in assay [11] it was 83.3 µM; in assay [12] it was over 100 µM; in assay [13], over 100 µM. The compound further gave a TGI in assay [14] of over 100 µM.

As to `Nc1ccc(Oc2ccc(C34CC5CC(C3)CC(c3ccc(Oc6ccc(N)cc6C(F)(F)F)cc3)(C5)C4)cc2)c(C(F)(F)F)c1`, the TGI in assay [3] was 33.4 µM; in assay [4] it was over 100 µM; in assay [5], over 100 µM; in assay [9] it was over 100 µM; in [10], 62.3 µM; in assay [12], over 100 µM. The TGI in [13] came out at 35.4 µM.

For `Cn1c(=O)c2c(nc3n2CCCC(=O)N3CCCCl)n(C)c1=O`, the TGI in assay [3], in assay [4], in assay [5], in assay [9], in assay [10] and in [12] was over 100 µM each time. Further, the TGI in assay [13] was over 100 µM.

On to `O=C1/C(=C/c2ccccc2Cl)COc2ccc(Br)cc21`, for which the TGI is over 100 µM in assay [1]; over 100 µM in assay [2]; 31.7 µM in assay [5]; over 100 µM in assay [6]; over 100 µM in assay [7]; over 100 µM in [8]. Also, the TGI in assay [9] is over 100 µM; in assay [15] it was over 100 µM; in assay [11], over 100 µM; in assay [12], over 100 µM; in assay [13], 85 µM; in assay [14], over 100 µM.

For the compound `Cc1n[nH]c(=O)n1C1CC1`, the TGI in assay [3], in [4], in [5], in [9], in [10] and in assay [12] was over 100 µM each time. Also, in [13], the TGI is over 100 µM.

Regarding `COc1cc(/C=C2\CCC(C)C3=C2N=c2s/c(=C/c4ccc(Cl)cc4)c(=O)n2C3c2cc(OC)c(OC)c(OC)c2)cc(OC)c1OC` (centres undefined), the TGI in assay [3], in assay [4], in [5], in assay [9], in assay [10] and in [12] was over 100 µM each time. The compound also came in with a TGI in assay [13] of over 100 µM.

With `CCOC(=O)C1=C(C(=O)OCC)SC2(S1)C(C(=O)OCC)=C(C(=O)OCC)Sc1c2ssc1=O`, the TGI in assay [3] amounted to 4.94 µM; in [4], 2.68 µM; in assay [5], 3.06 µM; in assay [9], 2.3 µM; in [10], 3.68 µM; in [12] it was 3.25 µM. Also, the TGI in [13] is 10.9 µM.

As to `Cn1cc(NC(=O)Nc2cc(C(=O)Nc3cc(C(=O)Nc4ccc5cc(S(=O)(=O)O)cc(S(=O)(=O)O)c5c4)n(C)c3)n(C)c2)cc1C(=O)Nc1cc(C(=O)Nc2ccc3cc(S(=O)(=O)O)cc(S(=O)(=O)O)c3c2)n(C)c1`, the TGI in assay [3], in assay [4], in assay [5], in [9], in assay [10] and in [12] was over 100 µM in each case. Besides, in [13], the TGI was over 100 µM.

Take `COc1cccc(C2=NC(C(C)C)CO2)c1OC` (centres undefined): the TGI in [1], in [2], in assay [3], in [4], in assay [5] and in assay [7] was over 100 µM each time. Moreover, the TGI in [8], in assay [15], in assay [10], in [11], in assay [12] and in [13] was over 100 µM each time. The same compound displayed a TGI in assay [14] of over 100 µM.
